Reference: ChEMBL document CHEMBL3507680, “University of Dundee, Gates Library screen for HepG2 cell viability”

Test: Human HepG2 cell viability assay in 384 well format
Assay type: toxicity, cell-based
Design: dose 125 nL, time 70.5 hour; concentration not given beside the values
Conditions: HepG2 cells, read-out: Inhibition

Row | Compound | cytotoxicity at 70.5 h
1 | CC(CN1CCOCC1)n1cncc1-c1cnn(Cc2ccccc2)c1 (stereo unspecified) | -2.84%
2 | CCOc1ccc(S(=O)(=O)C(C)C(=O)Nc2cc(C)no2)cc1 (stereo unspecified) | -4.64%
3 | OCCN(Cc1cccnc1)c1ccc(Cl)cn1 | -2.8%
4 | CCc1nnc2n1CC(CNc1cnc3ccccc3n1)CC2 (stereo unspecified) | 1.47%
5 | O=C(NCC1CCCCC1)c1nnn(-c2ccc(Br)cc2)n1 | -6.14%
6 | Fc1cccc(-n2ccc(CN3CCCCC3Cn3cncn3)n2)c1 (stereo unspecified) | -13.3%
7 | c1cncc(N2CCO[C@H]3CN(CC4CCOC4)C[C@H]32)c1 (stereo partly specified) | -3.42%
8 | CN(Cc1cn2c(n1)CN(C(=O)C1CCCO1)CC2)Cc1ccco1 (stereo unspecified) | -3.64%
9 | CCC1c2cccn2CCN1C(=O)c1ccno1 (stereo unspecified) | -9.21%
10 | Cc1ccc(C(=O)N2C[C@@H]3CN(S(C)(=O)=O)CCO[C@@H]3C2)o1 | -0.0736%
11 | Cc1ccc(C)c(OCc2cc(C(=O)N(C)Cc3cnn(C)c3)no2)c1 | -8.7%
12 | COc1ccc(N2Cc3nc(N4CCCC4)ncc3C2=O)cc1Cl | 1.18%
13 | COc1cccc(-c2ncc(CN3CC[C@H](CO)[C@@H](O)C3)s2)c1 | -20.8%
14 | Cn1cnc2cc(C(=O)NS(=O)(=O)c3ccc(F)cc3)ccc21 | -5.36%
15 | c1cc2ccc(N3CCN(Cc4ccc5c(c4)OCO5)CC3)nc2[nH]1 | -4.53%
16 | Cc1ccc(C(=O)Nc2cc(C(C)C)n[nH]2)cn1 | 31.4%
17 | CN(Cc1ccc(N2CCOCC2)cc1)Cc1noc(C(C)(C)C)n1 | 7.66%
18 | Cc1ccc(C(CNCc2ccc(C#N)cc2)N2CCOCC2)s1 (stereo unspecified) | -3.96%
19 | O=C(c1cc(Cl)c[nH]c1=O)N1C[C@@H]2CC[C@H](C1)N(Cc1ccccc1)C2 | 12.7%

Row | Compound | cytotoxicity at 70.5 h
20 | Cc1ccc(CN2C[C@@H]3CCCO[C@@H]3[C@H](N(C)Cc3ccco3)C2)o1 | -9.18%
21 | CN(C)C[C@@H]1[C@H]2CN(C(=O)c3cc(=O)[nH]c4ccc(F)cc34)C[C@@H]12 | 22.8%
22 | O=C(CN1CCN(c2ccc3nncn3n2)CC1)NC1CCCCC1 | -11.1%
23 | COc1ncc(CN(CCCN2CCOCC2)Cc2ccc(C)o2)cn1 | -4.04%
24 | Cc1nnc(NCCc2coc(-c3ccc(F)cc3)n2)c(C#N)c1C | -13.9%
25 | Cc1ccc(C(=O)N2C[C@H](NS(C)(=O)=O)[C@@H](C(C)C)C2)cc1F | 2.48%
26 | Cc1n[nH]cc1CNC1(c2ccc(Br)cc2)CC1 | -0.84%
27 | CC(C)(O)CCc1cccc(C(=O)N2CCC3(CCO3)CC2)c1 | -1.91%
28 | CN(C)C(=O)N1CC[C@@H](c2ccc3ccccc3c2)[C@H](O)C1 | 6.36%
29 | COCc1nc(N(C)C)ncc1C(=O)NC(C)C | 12.7%
30 | Cc1cnn(CC2CCCN2C(=O)c2ccc(C(N)=O)cn2)c1 (stereo unspecified) | -10.6%
31 | Cc1occc1C(=O)N1CCC2(CCCN(CC3CC3)C2=O)C1 (stereo unspecified) | -15%
32 | c1ncn(CC2CN(Cc3csc(C4CCCC4)n3)CCO2)n1 (stereo unspecified) | -7.39%
33 | CN(C)C(=O)[C@H]1C[C@@H]2CN(S(=O)(=O)c3ccccc3)C[C@H]1O2 | -6.1%
34 | Cn1cc(CN2CCOC(Cc3cccc(F)c3)C2)cn1 (stereo unspecified) | -6%
35 | CNCC(=O)N1CCCCC1c1nccc(C)n1 (stereo unspecified) | 16.2%
36 | Cc1ccc(C(=O)N(C)Cc2csc(Br)c2)c(=O)[nH]1 | 1.57%
37 | Cc1cnc(NC(=O)N2CCC(N3CCCCC3=O)CC2)s1 | -1.3%
38 | CC1CCN(C)c2ccccc2N1C(=O)c1ccc(=O)n(C)n1 (stereo unspecified) | -5.36%

Row | Compound | cytotoxicity at 70.5 h
39 | O=C(C1CCCC1)N1CCN(Cc2nc(-c3ccco3)no2)CC1 | -9.97%
40 | COCCCNC(=O)CN(C)C(C)c1nc(C)no1 (stereo unspecified) | -3.18%
41 | CN(Cc1cnccn1)CC1CCOc2ccccc2C1 (stereo unspecified) | -12.2%
42 | COCCN1CCC(c2nc3cc(C)ccc3[nH]2)CC1 | -8.34%
43 | COc1cccc(Cl)c1C(C(=O)O)N(C)Cc1nnc(C)o1 (stereo unspecified) | 11.6%
44 | COC1CCN(C(=O)CC(C)(C)C)CC(=O)N(C)c2ccccc21 (stereo unspecified) | 6.54%
45 | Cc1c(C)c2c(c(C)c1O)CC[C@](C)(C(=O)O)O2 [(R)-TROLOX] | -0.808%
46 | O=C(CCc1ccsc1)N1CCC(C(=O)O)(c2ccccc2)CC1 | -0.12%
47 | CCc1nc(C)cc(N2CCN(C(=O)[C@@H]3C[C@@H]4C=C[C@H]3C4)CC2)n1 | -7.28%
48 | Cc1nc(C2CCNCC2)cc(N2CCOc3ccccc3C2)n1 | -4.26%
49 | CC(C)N1CCCC(CNC(=O)c2ccnc(-n3ccnc3)c2)C1 (stereo unspecified) | -4.35%
50 | c1ccc2c(c1)CN(c1ncnc3sc4c(c13)CCNC4)CCO2 | 0.0341%
51 | Cc1noc(C)c1C(=O)N(C)C(C)c1ccncc1 (stereo unspecified) | -5.68%
52 | CC(C)c1cc(N2CCC3(CCN(C)C3)C2)ncn1 (stereo unspecified) | 3.25%
53 | O=C(Cn1cc(C(=O)O)ccc1=O)Nc1ccc(F)cc1Cl | -23.3%
54 | CC[C@H]1COCCN1C(=O)c1cnc(-c2ccccc2)nc1C | -5.37%
55 | CN(Cc1cccnc1)CC1CC12CCN(Cc1nccs1)CC2 (stereo unspecified) | 2.96%
56 | Cc1ccc2nc(C)c(C)c(C(=O)NCCCn3cnnc3)c2c1 | -2.61%
